In patent US6642392B1 (priority 1997, dated 2003):
Where two headings read alike, the source gives them in different places.

Experiments:
Format in all cases: in vivo
[1] = system: Botrytis cinerea; test: Test E: gray mold, preventive spray on cucumber seedlings; settings: for Test E disease control rating: gray mold on cucumber; for Test E disease control rating (100 = 100% disease control, 0 = no disease control): cucumber seedlings sprayed to run-off, inoculated the following day, rating relative to controls, unmarked compounds (standard test rate)
In short: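 Compounds in 3% acetone were suspended with 250 ppm Trem 014 surfactant and sprayed to run-off on cucumber seedlings. B. cinerea spores were inoculated next day, then 48 h saturated humidity at 20° C and 5 days at 20° C. Disease control rated 0–100% versus controls.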

[2] = system: Pyricularia oryzae; settings: for Test C disease control rating: rice blast; for Test C disease control rating (100 = 100% disease control, 0 = no disease control): rice seedlings sprayed to run-off, inoculated the following day, rating relative to controls, unmarked compounds (standard test rate)
[3] = system: Phytophthora infestans; settings: for Test D disease control rating: tomato late blight; for Test D disease control rating (100 = 100% disease control, 0 = no disease control): tomato seedlings sprayed to run-off, inoculated the following day, rating relative to controls, unmarked compounds (standard test rate)
[4] = system: Eiysiphe graminis f. sp. tritici; test: Test A: wheat powdery mildew, preventive spray on wheat seedlings; settings: for Test A disease control rating: wheat powdery mildew; for Test A disease control rating (100 = 100% disease control, 0 = no disease control): wheat seedlings sprayed to run-off, inoculated the following day, rating relative to controls, unmarked compounds (standard test rate)
In short: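 Compounds (3% acetone, 250 ppm Trem 014) sprayed to run-off on wheat seedlings, inoculated next day with spore dust. Incubated 7 days at 20° C before disease rating, 0–100% control relative to untreated controls.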

[5] = system: Puccinia recondita; test: Test B: wheat leaf rust, preventive spray on wheat seedlings; settings: for Test B disease control rating: wheat leaf rust; for Test B disease control rating (100 = 100% disease control, 0 = no disease control): wheat seedlings sprayed to run-off, inoculated the following day, rating relative to controls, unmarked compounds (standard test rate)
In short: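 Wheat seedlings were sprayed to run-off with compound (3% acetone, 250 ppm Trem 014), then inoculated with P. recondita spores the next day. They were held 24 h saturated at 20 °C, then 6 days at 20 °C. Ratings are 0–100% disease control versus controls.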

[6] = 100 = 100% disease control, 0 = no control, unmarked entries (standard test concentration)
[7] = 100 = 100% disease control, 0 = no control relative to controls, unmarked entries (standard test concentration)

CCc1ccccc1OCC(C)NC(=O)C1(CC)C(C)C1(Cl)Cl (mixture of isomers) [97a]
Test E disease control rating ([1]; tested at 40 ppm): 0%
Test C disease control rating ([2]; tested at 40 ppm): 0%
Test D disease control rating ([3]; tested at 40 ppm): 20%
Test A disease control rating ([4]; tested at 40 ppm): 0%
Test B disease control rating ([5]; tested at 40 ppm): 0%

Cc1c(Cl)cc(C#N)n1CCC(C)NC(=O)C(C#N)C(C)C(C)(C)C (mixture of isomers) [compound 72]
Test E disease control rating [1, 6]: 0%
Test C disease control rating [2, 6]: 91%
Test D disease control rating [3, 6]: 0%
Test A disease control rating [4, 7]: 0%
Test B disease control rating [5, 6]: 0%

C=CC(C)(C)C(C#N)C(=O)NC(C)COc1cc(C)ccc1F (mixture of isomers) [compound 282]
Test E disease control rating (100 = 100% disease control, 0 = no disease control) [1]: 0%
Test C disease control rating (100 = 100% disease control, 0 = no disease control) [2]: 100%
Test D disease control rating (100 = 100% disease control, 0 = no disease control) [3]: 24%
Test A disease control rating (100 = 100% disease control, 0 = no disease control) [4]: 0%
Test B disease control rating (100 = 100% disease control, 0 = no disease control) [5]: 0%

CC(COc1ccccc1F)NC(=O)C(C#N)C(C)(C)C (mixture of isomers) [2a]
Test E disease control rating [1, 6]: 55%
Test C disease control rating [2, 6]: 0%
Test D disease control rating [3, 6]: 0%
Test A disease control rating [4, 7]: 0%
Test B disease control rating [5, 6]: 0%

CCC1(C(=O)NCC=C(C)c2ccccc2)C(C)C1(Cl)Cl (centres unmarked) [compound 268]
Test E disease control rating (100 = 100% disease control, 0 = no disease control) [1]: 0%
Test C disease control rating (100 = 100% disease control, 0 = no disease control) [2]: 91%
Test D disease control rating (100 = 100% disease control, 0 = no disease control) [3]: 88%
Test A disease control rating (100 = 100% disease control, 0 = no disease control) [4]: 38%
Test B disease control rating (100 = 100% disease control, 0 = no disease control) [5]: 0%

C#CC(C)(C)C(C#N)C(=O)NC(C)COc1cc(F)ccc1OC(F)F (mixture of isomers) [compound 295]
Test E disease control rating (100 = 100% disease control, 0 = no disease control) [1]: 0%
Test C disease control rating (100 = 100% disease control, 0 = no disease control) [2]: 100%
Test D disease control rating (100 = 100% disease control, 0 = no disease control) [3]: 0%
Test A disease control rating (100 = 100% disease control, 0 = no disease control) [4]: 0%
Test B disease control rating (100 = 100% disease control, 0 = no disease control) [5]: 0%

CCC1(C(=O)NC(C)COc2ccc(F)cc2)C(C)C1(Cl)Cl (mixture of isomers) [80a]
Test E disease control rating ([1]; tested at 40 ppm): 0%
Test C disease control rating ([2]; tested at 40 ppm): 86%
Test D disease control rating ([3]; tested at 40 ppm): 20%
Test A disease control rating ([4]; tested at 40 ppm): 0%
Test B disease control rating ([5]; tested at 40 ppm): 0%

C[C@H](COc1ccccc1C#N)NC(=O)C(C#N)C(C)(C)C (single isomer, unassigned) [13b]
Test E disease control rating [1, 6]: 83%
Test C disease control rating [2, 6]: 86%
Test D disease control rating [3, 6]: 4%
Test A disease control rating [4, 7]: 0%
Test B disease control rating [5, 6]: 0%

CC(COc1ccccc1C(C)(C)C)NC(=O)C(C#N)C(C)(C)C (mixture of isomers) [compound 23]
Test E disease control rating [1, 6]: 0%
Test C disease control rating [2, 6]: 97%
Test D disease control rating [3, 6]: 48%
Test A disease control rating [4, 7]: 0%
Test B disease control rating [5, 6]: 0%

CC(COc1ccccc1C#N)NC(=O)C(C#N)C(C)(C)C (mixture of isomers) [13a]
Test E disease control rating [1, 6]: 0%
Test C disease control rating [2, 6]: 51%
Test D disease control rating [3, 6]: 0%
Test A disease control rating [4, 7]: 34%
Test B disease control rating [5, 6]: 0%

CCC1(C(=O)NC(C)COc2ccccc2OC(F)(F)C(F)F)C(C)C1(Cl)Cl (mixture of isomers) [compound 90]
Test E disease control rating [1, 6]: 0%
Test C disease control rating [2, 6]: 32%
Test D disease control rating [3, 6]: 0%
Test A disease control rating [4, 7]: 84%
Test B disease control rating [5, 6]: 0%

CCC1(C(=O)NC(C)CCn2c(C#N)cc(Br)c2C)C(C)C1(Cl)Cl (mixture of isomers) [compound 143]
Test E disease control rating [1, 6]: 0%
Test C disease control rating [2, 6]: 53%
Test D disease control rating [3, 6]: 0%
Test A disease control rating [4, 7]: 0%
Test B disease control rating [5, 6]: 0%

CCC1(C(=O)NC(C)COc2c(Br)cc(F)cc2Br)C(C)C1(Cl)Cl (centres unmarked) [compound 250]
Test E disease control rating (100 = 100% disease control, 0 = no disease control) [1]: 85%
Test C disease control rating (100 = 100% disease control, 0 = no disease control) [2]: 52%
Test D disease control rating (100 = 100% disease control, 0 = no disease control) [3]: 0%
Test A disease control rating (100 = 100% disease control, 0 = no disease control) [4]: 0%
Test B disease control rating (100 = 100% disease control, 0 = no disease control) [5]: 0%

CC(COc1cccc(F)c1C#N)NC(=O)C(C#N)C(C)C(C)(C)C (mixture of isomers) [compound 63]
Test E disease control rating [1, 6]: 0%
Test C disease control rating [2, 6]: 0%
Test D disease control rating [3, 6]: 2%
Test A disease control rating [4, 7]: 0%
Test B disease control rating [5, 6]: 0%

C[C@H](COc1cc(F)cc(F)c1F)NC(=O)C(C#N)C(C)(C)C (single isomer, unassigned) [168a]
Test E disease control rating [1, 6]: 58%
Test C disease control rating [2, 6]: 74%
Test D disease control rating [3, 6]: 0%
Test A disease control rating [4, 7]: 76%
Test B disease control rating [5, 6]: 0%

C[C@H](COc1cc(F)cc(F)c1Cl)NC(=O)C(C#N)C(C)(C)C (single isomer, unassigned) [169b]
Test E disease control rating [1, 6]: 0%
Test C disease control rating [2, 6]: 97%
Test D disease control rating [3, 6]: 0%
Test A disease control rating [4, 7]: 0%
Test B disease control rating [5, 6]: 0%

CCC1(C(=O)NC(C)COc2c(F)cccc2C#N)C(C)C1(Cl)Cl (mixture of isomers) [compound 316]
Test E disease control rating (100 = 100% disease control, 0 = no disease control) [1]: 0%
Test C disease control rating (100 = 100% disease control, 0 = no disease control) [2]: 53%
Test D disease control rating (100 = 100% disease control, 0 = no disease control) [3]: 0%
Test A disease control rating (100 = 100% disease control, 0 = no disease control) [4]: 0%
Test B disease control rating (100 = 100% disease control, 0 = no disease control) [5]: 0%

C=CCc1ccccc1OCC(C)NC(=O)C(C#N)C(C)(C)C (mixture of isomers) [25b]
Test E disease control rating [1, 6]: 0%
Test C disease control rating [2, 6]: 97%
Test D disease control rating [3, 6]: 24%
Test A disease control rating [4, 7]: 63%
Test B disease control rating [5, 6]: 0%

C[C@H](COc1cc(F)cc(F)c1Cl)NC(=O)C(C#N)C(C)(C)C (single isomer, unassigned) [169a]
Test E disease control rating [1, 6]: 0%
Test C disease control rating [2, 6]: 91%
Test D disease control rating [3, 6]: 24%
Test A disease control rating [4, 7]: 84%
Test B disease control rating [5, 6]: 27%

CCC1(C(=O)NCC(C)=Cc2ccccc2)C(C)C1(Cl)Cl (centres unmarked) [compound 265]
Test E disease control rating (100 = 100% disease control, 0 = no disease control) [1]: 0%
Test C disease control rating (100 = 100% disease control, 0 = no disease control) [2]: 91%
Test D disease control rating (100 = 100% disease control, 0 = no disease control) [3]: 96%
Test A disease control rating (100 = 100% disease control, 0 = no disease control) [4]: 77%
Test B disease control rating (100 = 100% disease control, 0 = no disease control) [5]: 0%

CC(COc1ccccc1C(F)(F)F)NC(=O)C(C#N)C(C)(C)C (mixture of isomers) [17b]
Test E disease control rating [1, 6]: 0%
Test C disease control rating [2, 6]: 100%
Test D disease control rating [3, 6]: 0%
Test A disease control rating [4, 7]: 38%
Test B disease control rating [5, 6]: 28%

CCC1(C(=O)NC(C)COc2ccccc2CC#N)C(C)C1(Cl)Cl (centres unmarked) [compound 103]
Test E disease control rating [1, 6]: 0%
Test C disease control rating [2, 6]: 53%
Test D disease control rating [3, 6]: 0%
Test A disease control rating [4, 7]: 0%
Test B disease control rating [5, 6]: 26%

C#CC(C)(C)C(C#N)C(=O)NC(C)COc1cc(F)ccc1Cl (mixture of isomers) [compound 193]
Test E disease control rating [1, 6]: 55%
Test C disease control rating [2, 6]: 100%
Test D disease control rating [3, 6]: 0%
Test A disease control rating [4, 7]: 0%
Test B disease control rating [5, 6]: 0%

CCC1(C(=O)NCC=Cc2ccccc2F)C(C)C1(Cl)Cl (centres unmarked) [compound 157]
Test E disease control rating ([1]; tested at 40 ppm): 0%
Test C disease control rating ([2]; tested at 40 ppm): 97%
Test D disease control rating ([3]; tested at 40 ppm): 0%
Test A disease control rating ([4]; tested at 40 ppm): 0%
Test B disease control rating ([5]; tested at 40 ppm): 0%

CC(COc1ccc(F)cc1)NC(=O)C(C#N)C(C)(C)C (mixture of isomers) [4c]
Test E disease control rating [1, 6]: 58%
Test C disease control rating [2, 6]: 94%
Test D disease control rating [3, 6]: 0%
Test A disease control rating [4, 7]: 35%
Test B disease control rating [5, 6]: 0%

CC(COc1ccccc1Br)NC(=O)C(C#N)C(C)(C)C (mixture of isomers) [8a]
Test E disease control rating [1, 6]: 7%
Test C disease control rating [2, 6]: 85%
Test D disease control rating [3, 6]: 0%
Test A disease control rating [4, 7]: 0%
Test B disease control rating [5, 6]: 0%

C[C@H](COc1cc(F)c(F)cc1F)NC(=O)C(C#N)C(C)(C)C (single isomer, unassigned) [188b]
Test E disease control rating [1, 6]: 45%
Test C disease control rating [2, 6]: 100%
Test D disease control rating [3, 6]: 35%
Test A disease control rating [4, 7]: 0%
Test B disease control rating [5, 6]: 0%

CCC1(C(=O)NC(C)COn2cc(Br)cc2C#N)C(C)C1(Cl)Cl (mixture of isomers) [compound 137]
Test E disease control rating [1, 6]: 0%
Test C disease control rating [2, 6]: 53%
Test D disease control rating [3, 6]: 0%
Test A disease control rating [4, 7]: 0%
Test B disease control rating [5, 6]: 0%
